Biological target: T1, JAK3 (Homo sapiens, UniProt P52333)
T1 sequence (P52333 1-1124): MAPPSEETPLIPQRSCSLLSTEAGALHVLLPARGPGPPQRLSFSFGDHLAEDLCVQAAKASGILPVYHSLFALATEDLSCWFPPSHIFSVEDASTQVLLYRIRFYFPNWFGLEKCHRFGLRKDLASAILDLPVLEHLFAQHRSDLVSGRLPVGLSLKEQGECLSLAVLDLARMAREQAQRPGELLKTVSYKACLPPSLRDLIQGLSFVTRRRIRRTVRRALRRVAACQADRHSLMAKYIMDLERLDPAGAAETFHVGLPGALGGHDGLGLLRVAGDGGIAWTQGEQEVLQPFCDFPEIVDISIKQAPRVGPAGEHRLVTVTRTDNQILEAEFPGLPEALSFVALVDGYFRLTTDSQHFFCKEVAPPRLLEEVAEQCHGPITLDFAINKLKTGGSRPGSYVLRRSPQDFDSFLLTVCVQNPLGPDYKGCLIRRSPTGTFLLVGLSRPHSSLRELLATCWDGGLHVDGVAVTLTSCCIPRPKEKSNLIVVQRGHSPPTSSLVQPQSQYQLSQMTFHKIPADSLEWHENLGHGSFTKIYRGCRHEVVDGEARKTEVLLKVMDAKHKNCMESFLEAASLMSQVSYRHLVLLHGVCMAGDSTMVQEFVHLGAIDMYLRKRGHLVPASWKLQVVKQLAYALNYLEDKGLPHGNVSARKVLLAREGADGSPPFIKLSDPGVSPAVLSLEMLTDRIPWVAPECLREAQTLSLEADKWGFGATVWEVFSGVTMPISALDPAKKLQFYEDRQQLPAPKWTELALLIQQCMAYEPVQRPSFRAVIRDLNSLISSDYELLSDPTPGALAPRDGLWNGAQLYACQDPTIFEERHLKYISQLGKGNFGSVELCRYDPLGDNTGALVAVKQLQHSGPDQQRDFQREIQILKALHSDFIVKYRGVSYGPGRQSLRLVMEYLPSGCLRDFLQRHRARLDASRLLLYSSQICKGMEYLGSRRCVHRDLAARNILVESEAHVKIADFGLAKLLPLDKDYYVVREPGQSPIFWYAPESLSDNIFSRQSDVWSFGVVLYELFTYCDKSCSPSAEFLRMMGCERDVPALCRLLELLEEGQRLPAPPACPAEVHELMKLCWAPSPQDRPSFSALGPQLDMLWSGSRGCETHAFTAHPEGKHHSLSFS
Assay: JAK3 inhibition assay
Format: biochemical
Settings: 2 μM ATP, ELISA read at 450 nm
Method: Compounds were screened for their ability to inhibit JAK3 according to the method described by G. R. Brown, et al, Bioorg. Med. Chem. Lett. 2000, vol. 10, pp 575–579 in the following manner. Into Maxisorb plates, previously coated at 4° C. with Poly (Glu, Ala, Tyr) 6:3:1 then washed with phosphate buffered saline 0.05% and Tween (PBST), was added 2 μM ATP, 5 MM MgCl2, and a solution of compound in DMSO. The reaction was started with JAK enzyme and the plates incubated for 60 minutes at 30° C. The plates were then washed with PBST, 100 μL HRP-Conjugated 4G10 antibody was added, and the plate incubated for 90 minutes at 30° C. The plate was again washed with PBST, 100 μL TMB solution is added, and the plates were incubated for another 30 minutes at 30° C. Sulfuric acid (100 μL of 1M) was added to stop the reaction and the plate is read at 450 nm to obtain the optical densities for analysis to determine Ki values.

Structure (SMILES) | Ki
NS(=O)(=O)c1ccc(Nc2nccc(-c3ccc4c(c3)NC(=O)CO4)n2)cc1 [IVa-23] | < 5 µM
CN1C(=O)COc2ccc(-c3ccnc(Nc4ccc(S(N)(=O)=O)cc4)n3)cc21 [IVa-24] | < 5 µM
